Test results reported in US20230286995A1, “METABOLICALLY STABLE PYRIMIDINYL DIHYDROQUINOXALINONES AS TUBULIN POLYMERIZATION INHIBITORS” (UNIVERSITY OF TENNESSEE RESEARCH FOUNDATION, priority 2022, published 2023).
Entries after “also recorded” stand apart in the source; their conditions may differ. Where two headings read alike, the source gives them in different places.

What was measured:
A549 = assay: cells; details: Homo sapiens, A549, read-out: IC50 ± SEM (nM) A549
PANC-1-Luc xenografts = assay: PANC-1-Luc subcutaneous xenograft model; type: in vivo, NSG mice
Experimental: (§1) All animal procedures were performed in accordance with the protocols approved by the Institutional Animal Care and Use Committee (IACUC) at UTHSC. Two pancreatic cancer cell lines, Mia PaCa-2-Luc and PANC-1-Luc, were used in this study. 50 μL of Mia PaCa-2-Luc (5×10^6 cells in HBSS) or PANC-1-Luc (3×10^6 cells in HBSS) cell suspension was mixed with same volume of Matrigel (1:1 mixture) right before use. Cell mixture was subcutaneously injected to the right flank of each NSG mice (male, 6-8 weeks). […] The control group received no treatment. Treatment started when the average tumor size reached 70-100 mm^3. […] Tumor volume and body weight were measured twice per week. Tumor volume was calculated by the equation: volume (mm^3)=0.5×(length×width^2). All animals were euthanized at the end of the study. Tumors were excised, recorded for ex-vivo weight and size, and imaged.

in vitro = details: rat, liver microsomes
A-253 and Detroit 562 = assay: Cytotoxicity in head and neck cancer cell lines; type: cell-based; details: Homo sapiens; FIG. 39A; read-out: IC50 values, range over A-253 and Detroit 562
Experimental: A panel of dihydroquinoxalinones were tested in two head and neck cancer cell lines, A-253 and Detroit 562. A-253 cells are a human salivary epidermoid carcinoma cell line, whereas Detroit 562 is a head and neck squamous cell carcinoma (HNSCC). Oral cancer is the most common type of head and neck cancer and more than 90% of oral cancers are either oral or oropharyngeal squamous cell carcinoma (SCC). A major clinical dilemma is chemotherapy efficiency targeted for head and neck squamous cell carcinoma (HNSCC). The inability to successfully complete cancer treatment utilizing a standard surgical approach due to an advanced stage of HNSCC and/or resistance of SCC cells to conventional chemotherapy and/or radiotherapy leads to a continuous search for new compounds with cytostatic activity and minor side effects.
FIGS. 39B and 39C illustrate the graphical representation of the data. […] For example, at treatment levels as low of 0.5 nM, 12k was able to prevent head and neck cancer cell proliferation almost completely, whereas it required 5 nM of 17ya to achieve similar antiproliferation.

[1] = test system: Mia PaCa-2-Luc xenografts; type: in vivo, NSG mice; details: 2 mg/kg i.v., 1 dose/week, 42 days
Experimental: as §1

Mia PaCa-2 cells = assay: Scratch migration assay (PDAC); type: cell-based, human; details: 5m 2 nM, PTX 4 nM, 48 h
Experimental: The Mia PaCa-2 cells (25,000 cells/well) were seeded in 96-well plates and allowed to adhere overnight. At 80-90% confluence, scratch was made with a wound maker. After washing off the debris, medium was replaced and tested compounds were added. Cells were live monitored with IncuCyte and pictures obtained every 2 h. Compared with the control, the wound width of cells under different treatment conditions was quantified according to the endpoint width over starting point.

[2] = test system: MDA-MB-231/VxR xenografts; assay: Orthotopic MDA-MB-231/VxR xenograft model; type: in vivo, NSG mice; details: 5m IV 1×/wk; Compound 17ya 20 mg/kg 3×/wk
A549/TxR = assay: cells; details: Homo sapiens, read-out: IC50 ± SEM (nM) A549/TxR
[3] = test system: PANC-1 and Mia PaCa-2 cell lines; assay: Cell cycle analysis (PDAC); type: cell-based, human
Experimental: The cells were plated in 100-mm dishes at a concentration of 1-2×10^6 cells/dish in DMEM without serum. After serum starvation for 24 h, medium was replaced with complete culture medium containing tested compounds. For cell cycle analysis, the cells were trypsinized and fixed with 70% ethanol in −20° C. overnight. The fixed cells were incubated with 100 μg/mL of RNase A and 50 μg/mL propidium iodide for 30 min at room temperature. Stained cells were analyzed using Bio-Rad ZE5 and ModFit LT 5.0.9 software at Flow cytometry and cell sorting core at the University of Tennessee Health Science Center (UTHSC) and the proportion of G1, S, G2/M phases were determined.

DU-145 = assay: Cytotoxicity assay (MTS, 72 h); type: cell-based; details: Homo sapiens, DU-145, read-out: IC50 ± SEM (nM) DU-145; Table 2
porcine brain tubulin = molecular target: T1, porcine brain tubulin (Sus scrofa, UniProt P02550+P02554); assay: Tubulin polymerization inhibitory assay (FIG. 29A); type: biochemical; details: 10 μM, 37° C.; DMSO control 0.3
T1 construct: tubulin mixture containing porcine brain tubulin (3 mg/mL); purchased Cytoskeleton, Inc. T-238P; host or cells: porcine brain
T1 sequence (P02550 whole entry): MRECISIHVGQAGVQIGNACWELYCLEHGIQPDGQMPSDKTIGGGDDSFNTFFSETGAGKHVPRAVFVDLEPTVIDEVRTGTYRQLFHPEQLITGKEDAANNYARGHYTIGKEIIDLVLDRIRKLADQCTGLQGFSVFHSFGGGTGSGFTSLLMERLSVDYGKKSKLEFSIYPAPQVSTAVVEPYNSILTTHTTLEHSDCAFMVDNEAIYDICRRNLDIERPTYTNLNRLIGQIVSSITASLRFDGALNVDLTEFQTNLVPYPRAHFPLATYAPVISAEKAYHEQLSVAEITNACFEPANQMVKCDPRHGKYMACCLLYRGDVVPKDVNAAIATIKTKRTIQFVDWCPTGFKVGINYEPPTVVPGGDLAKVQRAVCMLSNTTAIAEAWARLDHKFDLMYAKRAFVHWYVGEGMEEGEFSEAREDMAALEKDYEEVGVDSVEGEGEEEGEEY
T1 sequence (P02554 whole entry): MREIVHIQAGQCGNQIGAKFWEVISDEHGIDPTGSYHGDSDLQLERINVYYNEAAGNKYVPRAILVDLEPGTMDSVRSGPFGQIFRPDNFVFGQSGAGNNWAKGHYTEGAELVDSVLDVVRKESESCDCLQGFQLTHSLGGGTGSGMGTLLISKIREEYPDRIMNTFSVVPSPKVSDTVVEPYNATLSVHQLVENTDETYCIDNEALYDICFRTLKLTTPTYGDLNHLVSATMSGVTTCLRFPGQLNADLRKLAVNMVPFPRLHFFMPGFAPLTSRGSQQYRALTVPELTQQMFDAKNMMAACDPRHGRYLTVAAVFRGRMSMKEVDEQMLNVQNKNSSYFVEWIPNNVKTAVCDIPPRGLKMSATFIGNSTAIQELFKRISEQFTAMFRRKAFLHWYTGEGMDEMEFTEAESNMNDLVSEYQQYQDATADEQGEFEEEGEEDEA
Experimental: Tubulin polymerization inhibitory assay: In vitro tubulin polymerization assay was carried out according to the manufacturers' instructions (Cytoskeleton). Briefly, 10 μM of 5v was added into tubulin protein (3 mg/mL, purity>99%), and the mixture was transferred into a microplate reader and incubated at 37° C. […] Colchicine and paclitaxel were used as positive controls. […] The assay was carried out in duplicate.

A375/TxR cells = assay: Cell cycle analysis (PI, flow cytometry); type: cell-based, human; details: 5v 1, 2, 5 nM, 24 h
A375 = assay: Cytotoxicity assay (MTS, 72 h); details: Homo sapiens;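 further: compounds tested from 0.1 nM up to 3 µM in four replicate wells, with absorbance read at 490 nm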
Mia PaCa-2 = assay: Cytotoxicity assay (MTS, 72 h); type: cell-based; details: Homo sapiens, Table 6, read-out: IC50 (nM) Pancreatic cancer Mia PaCa-2
DU-145/TxR = assay: Cytotoxicity assay (MTS, 72 h); type: cell-based; details: Homo sapiens, DU-145, read-out: IC50 ± SEM (nM) DU-145/TxR; Table 2

SMILES | IC50 (A549) [nM] | xenograft tumor growth (PANC-1-Luc xenografts; 1 mg/kg or 2 mg/kg i.v., 1 dose/week for 7 weeks) | body weight vs control (PANC-1-Luc xenografts; 49 days, two doses) | CLint scaled at 1 μg/mL (in vitro) [mL/min/kg] | IC50 (A-253 and Detroit 562) [nM] | reduction of tumor growth vs control [1] | cell migration / wound healing (Mia PaCa-2 cells) | tumor growth of MDA-MB-231/VxR xenografts [2] | IC50 (A549/TxR) [nM] | cell cycle arrest at G2/M phase [3] | IC50 (DU-145) [nM] | A340 at which tubulin assembly stabilized (porcine brain tubulin) | G2/M phase arrest (A375/TxR cells) | IC50 (A375; A-375, read-out: IC50 (nM) Melanoma A375, Table 1) [nM] | IC50 (A375; A-375, read-out: IC50 (nM) Melanoma Cancer A375, Table 6) [nM] | IC50 (A375; A-375, read-out: IC50 ± SEM (nM) A375, Table 2) [nM] | IC50 (Mia PaCa-2) [nM] | IC50 (DU-145/TxR) [nM]
COc1ccc2c(c1)NC(=O)CN2c1nc(C)nc2c1CCC2 [Compound 5m, 7-methoxy-4-(2-methyl-6,7-dihydro-5H-cyclopenta[d]pyrimidin-4-yl)-3,4-dihydroquinoxalin-2(1H)-one] | 4.5 ± 0.8 | dose-dependent and significant inhibition of xenograft tumor growth; also recorded: dose-dependently inhibited xenograft tumor growth | no differences seen in body weight | 86.9 | 0.52 to 3.2 | 70-80% | more effectively inhibited wound healing | flat tumor growth curve | 2.8 ± 1.1 | dose dependently increase the proportion of cells in G2/M phase |  |  |  |  |  |  |  | 
CCNc1nc2c(c(N3CC(=O)Nc4cc(OC)ccc43)n1)CCC2 [Compound 5v, 4-(2-(ethylamino)-6,7-dihydro-5H-cyclopenta[d]pyrimidin-4-yl)-7-methoxy-3,4-dihydroquinoxalin-2(1H)-one] |  |  |  |  |  |  |  |  |  |  | 1.8 ± 0.3 | approximately 0.05 | arrested in the G2/M phase to increase dramatically | 0.7 ± 0.1 | ~1.6 | 0.4 ± 0.04 | 3.4 ± 0.4 | 1.9 ± 0.3
